Measured values as given in the kinase profiling compilation of Christmann-Franck et al. (2016).

Assays:
Assay in all cases: radiometric filter-binding kinase assay
[1] = tested on: AKT2 (human), P31751 [S474D]
CAMKK2 (human) = CAMKK2 (human) (UniProt Q96RR4)
CHEK1 (human) = CHEK1 (human) (UniProt O14757)
CLK2 (human) = CLK2 (human) (UniProt P49760)
CSNK1D (human) = CSNK1D (human) (UniProt P48730)
DYRK1A (human) = DYRK1A (human) (UniProt Q13627)
EPHA4 (human) = EPHA4 (human) (UniProt P54764)
HIPK3 (human) = HIPK3 (human) (UniProt Q9H422)
IGF1R (human) = IGF1R (human) (UniProt P08069)
IKBKE (human) = IKBKE (human) (UniProt Q14164)
Sequence of IKBKE (human) (Q14164 whole entry, looked up): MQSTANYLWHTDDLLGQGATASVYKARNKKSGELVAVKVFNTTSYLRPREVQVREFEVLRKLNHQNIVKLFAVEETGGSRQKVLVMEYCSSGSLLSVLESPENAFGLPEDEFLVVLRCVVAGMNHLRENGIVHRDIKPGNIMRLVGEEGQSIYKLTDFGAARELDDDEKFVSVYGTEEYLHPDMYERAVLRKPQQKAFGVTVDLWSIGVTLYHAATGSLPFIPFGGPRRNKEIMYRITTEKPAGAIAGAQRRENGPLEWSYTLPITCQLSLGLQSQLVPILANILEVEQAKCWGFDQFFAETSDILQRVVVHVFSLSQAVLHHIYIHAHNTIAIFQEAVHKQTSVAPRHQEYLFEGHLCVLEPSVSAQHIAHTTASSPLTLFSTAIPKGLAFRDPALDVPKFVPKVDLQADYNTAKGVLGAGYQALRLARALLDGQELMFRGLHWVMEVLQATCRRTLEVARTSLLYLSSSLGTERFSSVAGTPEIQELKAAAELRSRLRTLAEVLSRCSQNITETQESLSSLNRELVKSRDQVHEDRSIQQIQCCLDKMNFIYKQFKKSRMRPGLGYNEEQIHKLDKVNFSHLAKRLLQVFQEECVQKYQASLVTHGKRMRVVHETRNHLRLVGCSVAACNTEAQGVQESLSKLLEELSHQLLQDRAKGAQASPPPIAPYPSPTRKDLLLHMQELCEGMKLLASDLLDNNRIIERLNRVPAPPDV

IRAK4 (human) = IRAK4 (human) (UniProt Q9NWZ3)
MAP3K7 TAB1 (human) = MAP3K7 TAB1 (human) (UniProt Q15750+O43318)
Sequence of MAP3K7 TAB1 (human) (O43318 whole entry, looked up): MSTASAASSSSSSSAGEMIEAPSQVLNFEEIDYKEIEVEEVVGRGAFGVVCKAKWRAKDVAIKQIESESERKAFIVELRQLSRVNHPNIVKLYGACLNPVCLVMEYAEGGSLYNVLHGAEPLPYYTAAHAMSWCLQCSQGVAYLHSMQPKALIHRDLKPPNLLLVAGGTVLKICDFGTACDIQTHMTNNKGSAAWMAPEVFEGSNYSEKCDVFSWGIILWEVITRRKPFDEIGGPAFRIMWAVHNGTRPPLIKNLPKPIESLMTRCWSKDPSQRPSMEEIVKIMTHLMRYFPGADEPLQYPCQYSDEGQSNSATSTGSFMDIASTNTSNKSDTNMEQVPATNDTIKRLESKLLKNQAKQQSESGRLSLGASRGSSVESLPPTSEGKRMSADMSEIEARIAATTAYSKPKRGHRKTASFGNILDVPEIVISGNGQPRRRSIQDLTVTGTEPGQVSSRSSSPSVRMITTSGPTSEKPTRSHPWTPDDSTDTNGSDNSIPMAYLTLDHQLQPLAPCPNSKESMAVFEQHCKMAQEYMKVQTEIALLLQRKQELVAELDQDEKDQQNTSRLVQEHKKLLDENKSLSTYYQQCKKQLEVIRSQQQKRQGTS
Sequence of MAP3K7 TAB1 (human) (Q15750 whole entry, looked up): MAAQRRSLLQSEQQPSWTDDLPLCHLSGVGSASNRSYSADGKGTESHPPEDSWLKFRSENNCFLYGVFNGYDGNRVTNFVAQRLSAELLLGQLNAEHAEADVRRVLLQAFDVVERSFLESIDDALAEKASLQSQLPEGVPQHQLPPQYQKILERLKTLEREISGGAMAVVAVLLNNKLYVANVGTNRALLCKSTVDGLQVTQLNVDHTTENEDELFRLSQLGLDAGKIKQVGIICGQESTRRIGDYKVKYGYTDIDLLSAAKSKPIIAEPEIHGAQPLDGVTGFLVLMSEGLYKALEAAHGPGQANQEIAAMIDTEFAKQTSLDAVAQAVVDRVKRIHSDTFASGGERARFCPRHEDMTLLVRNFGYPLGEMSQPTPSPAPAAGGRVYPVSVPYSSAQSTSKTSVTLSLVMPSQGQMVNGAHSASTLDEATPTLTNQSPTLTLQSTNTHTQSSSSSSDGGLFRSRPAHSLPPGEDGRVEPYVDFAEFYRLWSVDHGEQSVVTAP

MAPK12 (human) = MAPK12 (human) (UniProt P53778)
Sequence of MAPK12 (human) (P53778 whole entry, looked up): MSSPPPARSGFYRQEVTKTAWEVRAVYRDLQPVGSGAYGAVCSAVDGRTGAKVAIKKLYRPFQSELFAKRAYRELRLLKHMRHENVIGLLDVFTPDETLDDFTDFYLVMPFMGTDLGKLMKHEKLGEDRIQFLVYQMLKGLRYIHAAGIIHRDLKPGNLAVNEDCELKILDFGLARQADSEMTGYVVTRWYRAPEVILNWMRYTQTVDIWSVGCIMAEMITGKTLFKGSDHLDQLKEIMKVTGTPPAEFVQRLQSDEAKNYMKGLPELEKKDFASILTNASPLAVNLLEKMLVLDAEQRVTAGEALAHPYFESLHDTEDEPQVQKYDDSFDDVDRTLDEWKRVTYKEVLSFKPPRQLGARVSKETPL

MAPK14 (human) = MAPK14 (human) (UniProt Q16539)
MAPK15 (human) = MAPK15 (human) (UniProt Q8TD08)
MAPK3 (human) = MAPK3 (human) (UniProt P27361)
MAPKAPK2 (human) = MAPKAPK2 (human) (UniProt P49137)
MARK1 (human) = MARK1 (human) (UniProt Q9P0L2)
MARK2 (human) = MARK2 (human) (UniProt Q7KZI7)
MST4 (human) = MST4 (human) (UniProt Q9P289)
Sequence of MST4 (human) (Q9P289 whole entry, looked up): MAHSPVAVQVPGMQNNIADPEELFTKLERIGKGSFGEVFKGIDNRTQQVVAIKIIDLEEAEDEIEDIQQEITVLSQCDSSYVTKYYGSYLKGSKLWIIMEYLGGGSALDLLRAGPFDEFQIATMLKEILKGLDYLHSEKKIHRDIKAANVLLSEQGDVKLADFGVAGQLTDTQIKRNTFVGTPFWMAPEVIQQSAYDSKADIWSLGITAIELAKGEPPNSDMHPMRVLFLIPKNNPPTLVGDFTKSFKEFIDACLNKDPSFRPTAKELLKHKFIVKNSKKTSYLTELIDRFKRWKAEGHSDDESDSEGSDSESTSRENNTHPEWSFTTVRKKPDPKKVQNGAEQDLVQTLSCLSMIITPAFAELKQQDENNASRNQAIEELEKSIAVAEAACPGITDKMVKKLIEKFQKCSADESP

NEK2 (human) = NEK2 (human) (UniProt P51955)
NEK6 (human) = NEK6 (human) (UniProt Q9HC98)
[2] = tested on: PAK2 (human), Q13177 [T402E]
PAK4 (human) = PAK4 (human) (UniProt O96013)
PAK6 (human) = PAK6 (human) (UniProt Q9NQU5)
PAK7 (human) = PAK7 (human) (UniProt Q9P286)
PIM2 (human) = PIM2 (human) (UniProt Q9P1W9)
PIM3 (human) = PIM3 (human) (UniProt Q86V86)
PKN2 (human) = PKN2 (human) (UniProt Q16513)
PLK1 (human) = PLK1 (human) (UniProt P53350)
Sequence of PLK1 (human) (P53350 whole entry, looked up): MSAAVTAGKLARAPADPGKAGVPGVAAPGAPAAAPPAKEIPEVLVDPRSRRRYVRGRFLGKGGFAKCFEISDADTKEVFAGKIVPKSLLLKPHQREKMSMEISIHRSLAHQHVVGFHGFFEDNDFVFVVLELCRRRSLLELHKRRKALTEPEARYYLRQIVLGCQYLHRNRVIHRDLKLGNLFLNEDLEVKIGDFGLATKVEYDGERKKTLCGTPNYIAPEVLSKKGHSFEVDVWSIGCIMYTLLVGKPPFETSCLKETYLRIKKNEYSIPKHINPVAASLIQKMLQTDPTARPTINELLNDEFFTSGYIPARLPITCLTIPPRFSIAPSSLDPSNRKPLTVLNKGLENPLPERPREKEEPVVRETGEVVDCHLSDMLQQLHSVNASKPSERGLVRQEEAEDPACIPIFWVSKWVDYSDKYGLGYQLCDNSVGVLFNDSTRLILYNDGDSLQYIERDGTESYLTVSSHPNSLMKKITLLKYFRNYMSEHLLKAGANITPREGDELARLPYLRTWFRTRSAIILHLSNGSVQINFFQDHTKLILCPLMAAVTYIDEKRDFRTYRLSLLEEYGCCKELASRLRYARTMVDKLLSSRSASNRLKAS

RIPK2 (human) = RIPK2 (human) (UniProt O43353)
RPS6KA3 KD1 KD2 (human) = RPS6KA3 KD1 KD2 (human) (UniProt P51812)
RPS6KA5 KD1 KD2 (human) = RPS6KA5 KD1 KD2 (human) (UniProt O75582)
[3] = tested on: SGK1 (human), O00141 [S422D]
Sequence of SGK1 (human), O00141 [S422D] (O00141 whole entry S422D, looked up): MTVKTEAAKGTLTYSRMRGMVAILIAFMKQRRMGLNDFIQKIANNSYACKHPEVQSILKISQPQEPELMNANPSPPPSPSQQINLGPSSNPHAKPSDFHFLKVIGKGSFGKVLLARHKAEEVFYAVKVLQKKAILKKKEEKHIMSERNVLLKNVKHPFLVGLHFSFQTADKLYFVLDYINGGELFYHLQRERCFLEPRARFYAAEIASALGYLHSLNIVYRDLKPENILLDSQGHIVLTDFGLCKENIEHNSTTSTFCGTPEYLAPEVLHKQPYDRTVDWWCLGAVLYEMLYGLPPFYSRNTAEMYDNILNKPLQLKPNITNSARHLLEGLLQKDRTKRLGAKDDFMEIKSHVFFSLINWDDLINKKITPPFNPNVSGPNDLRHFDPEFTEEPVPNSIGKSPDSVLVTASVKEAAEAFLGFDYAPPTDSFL

SRPK1 (human) = SRPK1 (human) (UniProt Q96SB4)

Sequence of CAMKK2 (human) (Q96RR4 whole entry, looked up): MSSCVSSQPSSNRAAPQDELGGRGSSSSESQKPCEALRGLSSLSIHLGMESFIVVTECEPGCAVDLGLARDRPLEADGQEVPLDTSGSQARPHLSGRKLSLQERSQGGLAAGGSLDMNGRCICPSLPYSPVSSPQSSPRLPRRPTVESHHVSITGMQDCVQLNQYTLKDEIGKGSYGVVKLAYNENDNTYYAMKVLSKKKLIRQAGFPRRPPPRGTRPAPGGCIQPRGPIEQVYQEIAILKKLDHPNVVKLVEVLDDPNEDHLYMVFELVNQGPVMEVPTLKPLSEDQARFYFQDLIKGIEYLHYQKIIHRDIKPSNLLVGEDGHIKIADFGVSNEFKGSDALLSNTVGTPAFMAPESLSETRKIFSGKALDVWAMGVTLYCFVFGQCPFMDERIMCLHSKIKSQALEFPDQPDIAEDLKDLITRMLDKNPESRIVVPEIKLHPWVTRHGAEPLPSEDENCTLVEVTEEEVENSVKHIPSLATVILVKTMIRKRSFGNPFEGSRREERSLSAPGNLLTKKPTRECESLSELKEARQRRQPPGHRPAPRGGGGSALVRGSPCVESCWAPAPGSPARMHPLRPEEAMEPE
Sequence of CHEK1 (human) (O14757 whole entry, looked up): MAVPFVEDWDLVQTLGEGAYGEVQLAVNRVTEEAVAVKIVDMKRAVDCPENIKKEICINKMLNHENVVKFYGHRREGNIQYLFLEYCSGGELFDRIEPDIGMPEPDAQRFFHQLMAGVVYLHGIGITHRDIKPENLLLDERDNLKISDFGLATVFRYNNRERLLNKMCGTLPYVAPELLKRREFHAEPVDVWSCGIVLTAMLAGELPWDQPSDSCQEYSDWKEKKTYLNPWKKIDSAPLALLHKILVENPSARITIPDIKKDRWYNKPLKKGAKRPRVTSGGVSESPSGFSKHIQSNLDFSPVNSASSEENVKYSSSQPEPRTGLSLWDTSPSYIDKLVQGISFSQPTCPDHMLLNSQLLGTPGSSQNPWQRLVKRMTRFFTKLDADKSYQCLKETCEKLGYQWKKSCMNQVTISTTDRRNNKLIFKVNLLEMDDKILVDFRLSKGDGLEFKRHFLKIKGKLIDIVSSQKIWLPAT

CCn1c(-c2nonc2N)nc2cncc(CNC3CCNCC3)c21
residual activity ([1]; compound 0.1 µM): 101%
residual activity ([1]; compound 1.0 µM): 59%
residual activity ([1]; compound 10.0 µM): 38%
residual activity (CAMKK2 (human); compound 1.0 µM): 128%
residual activity (CAMKK2 (human); compound 10.0 µM): 105%
residual activity (CHEK1 (human); compound 0.1 µM): 89%
residual activity (CHEK1 (human); compound 1.0 µM): 88%
residual activity (CHEK1 (human); compound 10.0 µM): 53%
residual activity (CLK2 (human); compound 0.1 µM): 107%
residual activity (CLK2 (human); compound 1.0 µM): 71%
residual activity (CLK2 (human); compound 10.0 µM): 22%
residual activity (CSNK1D (human); compound 0.1 µM): 102%
residual activity (CSNK1D (human); compound 1.0 µM): 91%
residual activity (CSNK1D (human); compound 10.0 µM): 61%
residual activity (DYRK1A (human); compound 0.1 µM): 92%
residual activity (DYRK1A (human); compound 1.0 µM): 73%
residual activity (DYRK1A (human); compound 10.0 µM): 35%
residual activity (EPHA4 (human); compound 1.0 µM): 109%
residual activity (HIPK3 (human); compound 0.1 µM): 99%
residual activity (HIPK3 (human); compound 1.0 µM): 95%
residual activity (HIPK3 (human); compound 10.0 µM): 84%
residual activity (IGF1R (human); compound 0.1 µM): 96%
residual activity (IGF1R (human); compound 1.0 µM): 107%
residual activity (IGF1R (human); compound 10.0 µM): 105%
residual activity (IKBKE (human); compound 0.1 µM): 111%
residual activity (IKBKE (human); compound 1.0 µM): 110%
residual activity (IKBKE (human); compound 10.0 µM): 115%
residual activity (IRAK4 (human); compound 0.1 µM): 99%
residual activity (IRAK4 (human); compound 1.0 µM): 86%
residual activity (IRAK4 (human); compound 10.0 µM): 87%
residual activity (MAP3K7 TAB1 (human); compound 0.1 µM): 95%
residual activity (MAP3K7 TAB1 (human); compound 1.0 µM): 94%
residual activity (MAP3K7 TAB1 (human); compound 10.0 µM): 82%
residual activity (MAPK12 (human); compound 0.1 µM): 119%
residual activity (MAPK12 (human); compound 1.0 µM): 112%
residual activity (MAPK12 (human); compound 10.0 µM): 109%
residual activity (MAPK14 (human); compound 0.1 µM): 101%
residual activity (MAPK14 (human); compound 1.0 µM): 95%
residual activity (MAPK14 (human); compound 10.0 µM): 94%
residual activity (MAPK15 (human); compound 0.1 µM): 95%
residual activity (MAPK15 (human); compound 1.0 µM): 62%
residual activity (MAPK15 (human); compound 10.0 µM): 27%
residual activity (MAPK3 (human); compound 0.1 µM): 95%
residual activity (MAPK3 (human); compound 1.0 µM): 98%
residual activity (MAPK3 (human); compound 10.0 µM): 97%
residual activity (MAPKAPK2 (human); compound 0.1 µM): 112%
residual activity (MAPKAPK2 (human); compound 1.0 µM): 104%
residual activity (MAPKAPK2 (human); compound 10.0 µM): 102%
residual activity (MARK1 (human); compound 0.1 µM): 85%
residual activity (MARK1 (human); compound 1.0 µM): 95%
residual activity (MARK1 (human); compound 10.0 µM): 71%
residual activity (MARK2 (human); compound 0.1 µM): 99%
residual activity (MARK2 (human); compound 1.0 µM): 92%
residual activity (MARK2 (human); compound 10.0 µM): 63%
residual activity (MST4 (human); compound 0.1 µM): 91%
residual activity (MST4 (human); compound 1.0 µM): 81%
residual activity (MST4 (human); compound 10.0 µM): 91%
residual activity (NEK2 (human); compound 0.1 µM): 98%
residual activity (NEK2 (human); compound 1.0 µM): 93%
residual activity (NEK2 (human); compound 10.0 µM): 106%
residual activity (NEK6 (human); compound 0.1 µM): 103%
residual activity (NEK6 (human); compound 1.0 µM): 101%
residual activity (NEK6 (human); compound 10.0 µM): 102%
residual activity ([2]; compound 0.1 µM): 99%
residual activity ([2]; compound 1.0 µM): 93%
residual activity ([2]; compound 10.0 µM): 90%
residual activity (PAK4 (human); compound 1.0 µM): 96%
residual activity (PAK4 (human); compound 10.0 µM): 79%
residual activity (PAK6 (human); compound 0.1 µM): 103%
residual activity (PAK6 (human); compound 1.0 µM): 94%
residual activity (PAK6 (human); compound 10.0 µM): 93%
residual activity (PAK7 (human); compound 0.1 µM): 93%
residual activity (PAK7 (human); compound 1.0 µM): 100%
residual activity (PAK7 (human); compound 10.0 µM): 98%
residual activity (PIM2 (human); compound 1.0 µM): 110%
residual activity (PIM2 (human); compound 10.0 µM): 69%
residual activity (PIM3 (human); compound 0.1 µM): 76%
residual activity (PIM3 (human); compound 1.0 µM): 36%
residual activity (PIM3 (human); compound 10.0 µM): 13%
residual activity (PKN2 (human); compound 0.1 µM): 31%
residual activity (PKN2 (human); compound 1.0 µM): 12%
residual activity (PKN2 (human); compound 10.0 µM): 7%
residual activity (PLK1 (human); compound 0.1 µM): 83%
residual activity (PLK1 (human); compound 1.0 µM): 60%
residual activity (PLK1 (human); compound 10.0 µM): 41%
residual activity (RIPK2 (human); compound 0.1 µM): 86%
residual activity (RIPK2 (human); compound 1.0 µM): 77%
residual activity (RIPK2 (human); compound 10.0 µM): 77%
residual activity (RPS6KA3 KD1 KD2 (human); compound 0.1 µM): 94%
residual activity (RPS6KA5 KD1 KD2 (human); compound 0.1 µM): 22%
residual activity (RPS6KA5 KD1 KD2 (human); compound 1.0 µM): 5%
residual activity (RPS6KA5 KD1 KD2 (human); compound 10.0 µM): 1%
residual activity ([3]; compound 0.1 µM): 82%
residual activity ([3]; compound 1.0 µM): 55%
residual activity ([3]; compound 10.0 µM): 25%
residual activity (SRPK1 (human); compound 0.1 µM): 94%
residual activity (SRPK1 (human); compound 1.0 µM): 99%
residual activity (SRPK1 (human); compound 10.0 µM): 86%

COc1cc(O)c2c(c1)/C=C/C[C@H](O)[C@H](O)C(=O)/C=C\C[C@H](C)OC2=O
residual activity ([1]; compound 0.1 µM): 86%
residual activity ([1]; compound 1.0 µM): 84%
residual activity (CAMKK2 (human); compound 0.1 µM): 87%
residual activity (CAMKK2 (human); compound 1.0 µM): 57%
residual activity (CHEK1 (human); compound 0.1 µM): 114%
residual activity (CHEK1 (human); compound 1.0 µM): 92%
residual activity (CLK2 (human); compound 0.1 µM): 96%
residual activity (CLK2 (human); compound 1.0 µM): 90%
residual activity (CSNK1D (human); compound 0.1 µM): 102%
residual activity (CSNK1D (human); compound 1.0 µM): 104%
residual activity (DYRK1A (human); compound 0.1 µM): 117%
residual activity (DYRK1A (human); compound 1.0 µM): 97%
residual activity (EPHA4 (human); compound 0.1 µM): 91%
residual activity (EPHA4 (human); compound 1.0 µM): 46%
residual activity (HIPK3 (human); compound 0.1 µM): 90%
residual activity (HIPK3 (human); compound 1.0 µM): 103%
residual activity (IGF1R (human); compound 0.1 µM): 100%
residual activity (IGF1R (human); compound 1.0 µM): 93%
residual activity (IKBKE (human); compound 0.1 µM): 120%
residual activity (IKBKE (human); compound 1.0 µM): 92%
residual activity (IRAK4 (human); compound 0.1 µM): 99%
residual activity (IRAK4 (human); compound 1.0 µM): 28%
residual activity (MAP3K7 TAB1 (human); compound 0.1 µM): 5%
residual activity (MAP3K7 TAB1 (human); compound 1.0 µM): 3%
residual activity (MAPK12 (human); compound 0.1 µM): 99%
residual activity (MAPK12 (human); compound 1.0 µM): 92%
residual activity (MAPK14 (human); compound 0.1 µM): 103%
residual activity (MAPK14 (human); compound 1.0 µM): 85%
residual activity (MAPK15 (human); compound 0.1 µM): 40%
residual activity (MAPK15 (human); compound 1.0 µM): 4%
residual activity (MAPK3 (human); compound 0.1 µM): 106%
residual activity (MAPK3 (human); compound 1.0 µM): 64%
residual activity (MAPKAPK2 (human); compound 0.1 µM): 124%
residual activity (MAPKAPK2 (human); compound 1.0 µM): 79%
residual activity (MARK1 (human); compound 0.1 µM): 112%
residual activity (MARK1 (human); compound 1.0 µM): 99%
residual activity (MARK2 (human); compound 0.1 µM): 109%
residual activity (MARK2 (human); compound 1.0 µM): 114%
residual activity (MST4 (human); compound 0.1 µM): 129%
residual activity (MST4 (human); compound 1.0 µM): 72%
residual activity (NEK2 (human); compound 0.1 µM): 108%
residual activity (NEK2 (human); compound 1.0 µM): 89%
residual activity (NEK6 (human); compound 0.1 µM): 122%
residual activity (NEK6 (human); compound 1.0 µM): 93%
residual activity ([2]; compound 0.1 µM): 104%
residual activity ([2]; compound 1.0 µM): 110%
residual activity (PAK4 (human); compound 0.1 µM): 94%
residual activity (PAK4 (human); compound 1.0 µM): 81%
residual activity (PAK6 (human); compound 0.1 µM): 100%
residual activity (PAK6 (human); compound 1.0 µM): 87%
residual activity (PAK7 (human); compound 0.1 µM): 96%
residual activity (PAK7 (human); compound 1.0 µM): 103%
residual activity (PIM2 (human); compound 0.1 µM): 91%
residual activity (PIM2 (human); compound 1.0 µM): 106%
residual activity (PIM3 (human); compound 0.1 µM): 126%
residual activity (PIM3 (human); compound 1.0 µM): 80%
residual activity (PKN2 (human); compound 0.1 µM): 102%
residual activity (PKN2 (human); compound 1.0 µM): 91%
residual activity (PLK1 (human); compound 0.1 µM): 103%
residual activity (PLK1 (human); compound 1.0 µM): 100%
residual activity (RIPK2 (human); compound 0.1 µM): 103%
residual activity (RIPK2 (human); compound 1.0 µM): 39%
residual activity (RPS6KA3 KD1 KD2 (human); compound 0.1 µM): 106%
residual activity (RPS6KA3 KD1 KD2 (human); compound 1.0 µM): 70%
residual activity (RPS6KA5 KD1 KD2 (human); compound 1.0 µM): 100%
residual activity ([3]; compound 0.1 µM): 106%
residual activity ([3]; compound 1.0 µM): 95%
residual activity (SRPK1 (human); compound 0.1 µM): 104%
residual activity (SRPK1 (human); compound 1.0 µM): 88%
